“Also recorded” adds a separate entry of the source.
Key:
[1] = system: L. amazonensis promastigotes and amastigotes; assay: Tubulin intensity by confocal immunofluorescence microscopy; type: cell-based, Leishmania amazonensis; settings: 24 h at EC50^72 h
Protocol: (§1) Promastigotes or amastigotes were treated with the indicated compound concentrations and allowed to adhere to poly-L-lysine coated plates. All cells were fixed with 4% paraformaldehyde and permeabilized/blocked with 0.01% Triton X-100 and 2% BSA in PBS. Promastigotes and amastigotes were incubated with mouse anti-gp46 or anti-p8, respectively at 1:50 or 1:1000 and rat anti-alpha-tubulin antibody at 1:1000. Samples were then probed with A568 anti-mouse and […] secondary antibodies (Molecular Probes). DNA was labeled with Hoescht. Samples were visualized on a Zeiss LSM 880 Inverted confocal Airyscan microscope at 63×; full Z-thicknesses through parasites were obtained. […] For microscopic analysis of mitotic arrest, at least 200 parasites were analyzed per condition per experiment after 48 hrs incubation at compounds' EC50, and the average plus standard error for three experiments was calculated. Representative images were selected from the maximal intensity projections and linearly processed in Adobe Photoshop CS6.
One reason why MMV676477 might affect parasite cell division is that, like paclitaxel, it might affect microtubule polymerization, either directly or indirectly. The degree to which MMV676477 affected microtubules polymerization in cells was examined. […] Centrifugation of these extracts allowed separation of insoluble polymeric (pellet) and soluble dimeric (supernatant) tubulin. […] The intensity of α-tubulin staining was examined by normalizing it to the intensity of a membrane protein (gp46 for promastigotes in FIG. 4D; p8 for amastigotes in FIG. 4E).

[2] = system: blood-stage P. falciparum (3D7 strain); assay: Malaria SYBR green I fluorescence (MSF) assay; type: cell-based, Plasmodium falciparum
Protocol: For other parasites, L. donovani, strain MHOM/SD/62/1S-C12D, was grown as previously described. Plasmodium falciparum parasites of the 3D7 strain were cultured in RPMI 1640 medium supplemented with 37.5 mM HEPES, 10 mM D-glucose, 2 mM L-glutamine, 100 μM hypoxanthine, 25 μg/mL gentamicin, 4% (v/v) human serum and 0.25% (v/v) Albumax II, at a 2% haematocrit in an atmosphere of 1% 02, 3% CO2 and 96% N2. Staging and parasitemia of the in vitro culture were assessed by light microscopy of Giemsa-stained thin blood smears.
Compounds were tested against the blood-stage Trypanosoma brucei (48 hr endpoint) and intra-erythrocytic asexual stages Plasmodium falciparum (3D7) using CellTiter-Glo® luminescent and Malaria SYBR green I fluorescence (MSF) assays, respectively. Similar methodology will be used for future experiments.
MMV676477 was tested against several other parasites: the axenic amastigotes of Leishmania donovani and Leishmania tarentolae, blood-stage Plasmodium falciparum, and Trypanosoma brucei. The compound's activity was measured using alamarBlue®, Malaria SYBR green I fluorescence (MSF) and CellTiter-Glo® luminescent assays. […] In addition, MMV676477 has also been recently reported as having potent activity against Neospora caninum, Cryptosporidium parvum, Toxoplasma gondii, and Entamoeba histolytica.

[3] = system: L. amazonensis promastigotes and amastigotes; assay: Microscopic analysis of cell division; type: cell-based, Leishmania amazonensis; settings: 48 h at EC50^72 h
Protocol: as §1
The molecular target of MMV676477 was investigated.

[4] = system: intracellular L. amazonensis amastigotes; assay: Intramacrophage bioluminescence assay with luciferase-expressing L. amazonensis; type: cell-based, Leishmania amazonensis; settings: Leishmania amazonensis, RAW264.7, 72 h, read-out: EC50^72 h against intracellular L. amazonensis amastigotes
Protocol: Intracellular EC50s were estimated with L. amazonensisluc parasites. Briefly, RAW 264.7 cells or BM primary Mϕs were starved overnight, then infected with metacyclic promastigotes at a Multiplicity of Infection (MOI) of 15 and incubated for another 24 h at 37° C. The plates containing infected RAW 264.7 cells/BM primary M4s were washed five times with serum-free DMEM. Serially diluted compounds were added, and plates were incubated at 37° C. for 72 hrs. Bioluminescence signal was measured as described above.
RAW 264.7 cells were used to perform a bioluminescence assay with transgenic luciferase-expressing L. amazonensis (FIG. 1C).

CCc1c(C)nc(-n2nc(C)cc2NC(=O)c2ccccc2SC)[nH]c1=O [MMV676477, N-(1-(5-Ethyl-4-methyl-6-oxo-1,6-dihydropyrimidin-2-yl)-3-methyl-1H-pyrazol-5-yl)-2-(methylthio)benzamide]
tubulin intensity over control (DMSO-treated) [1]: significant two-fold increase in tubulin intensity
activity against Plasmodium falciparum (in words) [2]: nanomolar-range cytocidal potency; also recorded: broad activity; also recorded: nanomolar concentrations
percentage of L. amazonensis undergoing cell division [3]: significant two-fold increase
EC50 [4]: 510 nM
